Experimental data published in patent publication US20230183303A1, “Therapeutic Potential of Peptides from the "Netrin-Like" Domain of the FRZB Protein” (Université de Lorraine, priority 2020, published 2023).

Tests used:
[1] = tested on: ATDC5 micromasses; experiment: Glycosaminoglycan/proteoglycan quantification (Alcian blue staining) in ATDC5 micromasses; format: cell-based, mouse
Description: Mouse chondrogenic ATDC5 cells (cartilage-specific chondrogenic strain) were cultured until confluent in maintenance medium containing 1:1 Dulbecco's modified Eagle's medium (DMEM): Ham's F-12 mix (Gibco) supplemented with 1% antibiotic (AB, Penicillin-Streptomycin, Gibco), 5% fetal bovine serum (FBS) (Gibco) and enriched with […] human transferrin (Sigma) and 30 nM sodium selenite (Sigma). Cells were trypsinized, washed and resuspended at 2.10^7 cells/mL in a chondrogenic medium made of maintenance medium enriched by 1× of ITS premix (resulting in 10 μg/mL insulin, 10 μg/mL human transferrin and 30 nM sodium selenite) (Life technologies). One droplet of cell suspension (10 μL) was placed at the center of each well of a 24-well plate. Cells were allowed to adhere for 2 h at 37° C., followed by addition of 500 μL chondrogenic medium supplemented. […] After 14 days, induction of hypertrophic differentiation and mineralization was induced by the mineralization medium made of α-MEM medium (Gibco) containing 1% AB, 5% FBS, 5 μg/ml human transferrin, 1× of ITS premix, 50 μg/ml ascorbic acid-2-phosphate (AA) (Sigma) and 10 mM β-glycerophosphate (BGP) (Sigma). […] Micromasses were collected at time points 1, 7, 14 21 and 28 days. Each time point was processed in three technical replicates. The medium was changed every other day. […] The genes of interest were articular chondrocyte markers (aggrecan, type 2 collagen (col2a1)), YAP/TAZ target genes (ctgf, ankrd) and pro-catabolic enzymes involved in the pathophysiology of OA (mmp3, mmp13).
Micromasses were washed with PBS and fixed with 95% ice-cold ethanol for 30 min at 4° C. for staining. After washing with distilled water, micromasses were stained with Alcian Blue (0.1% Alcian Blue 8GX, (Sigma)), washed three times with distilled water to remove unbound staining and air-dried.

[2] = tested on: CamKII pathway; experiment: Western blot of CamKII pathway activation in ATDC5 micromasses; format: cell-based, mouse; conditions: PEP16 at 100 and 300 ng/mL; pre-mineralization phase of chondrogenesis (D14)
Description: Mouse chondrogenic ATDC5 cells (cartilage-specific chondrogenic strain) were cultured until confluent in maintenance medium containing 1:1 Dulbecco's modified Eagle's medium (DMEM): Ham's F-12 mix (Gibco) supplemented with 1% antibiotic (AB, Penicillin-Streptomycin, Gibco), 5% fetal bovine serum (FBS) (Gibco) and enriched with […] human transferrin (Sigma) and 30 nM sodium selenite (Sigma). Cells were trypsinized, washed and resuspended at 2.10^7 cells/mL in a chondrogenic medium made of maintenance medium enriched by 1× of ITS premix (resulting in 10 μg/mL insulin, 10 μg/mL human transferrin and 30 nM sodium selenite) (Life technologies). One droplet of cell suspension (10 μL) was placed at the center of each well of a 24-well plate. Cells were allowed to adhere for 2 h at 37° C., followed by addition of 500 μL chondrogenic medium supplemented. […] After 14 days, induction of hypertrophic differentiation and mineralization was induced by the mineralization medium made of α-MEM medium (Gibco) containing 1% AB, 5% FBS, 5 μg/ml human transferrin, 1× of ITS premix, 50 μg/ml ascorbic acid-2-phosphate (AA) (Sigma) and 10 mM β-glycerophosphate (BGP) (Sigma). […] Micromasses were collected at time points 1, 7, 14 21 and 28 days. Each time point was processed in three technical replicates. The medium was changed every other day. […]

[3] = tested on: MMP13; experiment: MMP13 enzymatic activity in culture supernatants of human articular cartilage explants (osteoarthritis); format: cell-based; conditions: PEP16 at 300 ng/mL for 7 days (3 stimulations); explants from 3 patients with end-stage osteoarthritis
Description: Explants of human articular cartilage were obtained from total knee replacement surgeries, from the orthopedic department from the CHRU of Nancy (Pr. Didier Mainard). Samples were washed three times in 1% AB/PBS and incubated for 24 h in growth medium (DMEM-F12, containing 1% AB (Gibco), 10% FBS (Gibco) and 5% L-glutamine (Thermoscientific). Explants were then stimulated with PEP16 at the concentration of 300 ng/ml during 7 days. The culture supernatants were then harvested in order to perform MMP13 enzymatic activity assay.
The MMP13 enzymatic activity was assessed using the MMP13 fluorogenic substrate (Merck Millipore). Briefly, culture supernatants harvested at the end of the different experiments were mixed with 1.5 mM of 4-aminophenylmercuric acetate, and incubated for 1 h at 37° C., in order to turn every pro-MMPs into active MMPs. Then, the fluorogenic substrate was added, and the mixture was incubated for 3 h at 37° C. Fluorescence was evaluated using the following parameters, excitation 325 nm and emission 393 nm, on the Varioskan Flash device (Thermo Fisher Scientific). Recombinant human MMP13 was used as a positive control (Merck Millipore). Negative control consisted in growth medium.

[4] = tested on: MC3T3-E1 cells; experiment: qRT-PCR relative expression of genes of interest in MC3T3-E1 cells (osteogenic differentiation); format: cell-based, mouse
From the text: (§1) Each time point was processed in three technical replicates. The medium was changed every two days.
Total RNA was isolated using the Nucleospin RNA II kit (Macherey-Nagel) and reverse-transcribed using the MMLV reverse transcriptase (Thermo Fisher Scientific) following the manufacturers' instructions. The iTaq SYBR green qPCR master mix (BioRad) was used to assess the mRNA expression of target genes of interest. Primer sequences can be provided upon request. The following PCR conditions were used: 1 minute at 95° C., 40 cycles of 15 sec of denaturation at 95° C., followed by 1 minute of annealing-elongation at 60° C. Melting curve analysis was performed to determine the amplification of the specific product. Results were expressed using the comparative threshold method and were normalized to housekeeping gene PPIA (Peptidylprolyl Isomerase A) mRNA level for ATDC5 cells and MACs, or normalized to housekeeping gene S29 (ribosomal protein S29) mRNA level for MC3T3-E1 cells. The Via7 real-time PCR system (Thermo Fisher Scientific) was used for qRT-PCR measurements.
Briefly, MC3T3-E1 cells were differentiated during 14 days as mentioned previously. […] In the same experiment, we also used MC3T3-E1 cells stably overexpressing the NTN domain. Treated cells and NTN overexpressing cells were compared to control cells (CTL).
RNA was isolated and qPCR was performed for ANKRD (YAP/TAZ target gene, indicator of the pathway activity) (FIG. 21).

[5] = tested on: MC3T3-E1 cells; experiment: Quantification of mineralization (Alizarin Red) in MC3T3-E1 cells; format: cell-based, mouse; conditions: PEP16 at 100 or 300 ng/mL; day 21; absorbance 405 nm
Description: as §1
Cells were washed with PBS and fixed with 95% ice-cold ethanol for 30 min at 4° C. for staining. After washing with distilled water, cells were stained with Alizarin Red staining (1% Alizarin Red S (Sigma)), washed three times with distilled water to remove unbound staining and air-dried. Quantification of the staining was performed by dissolving the mineral content in 800 μl of 10% acetic acid for 30 minutes. Then, the wells were scraped, the content of each well was harvested in a separate tube and vortexed for 30 seconds. Each tube was heated at 85° C. for 10 minutes, then put on ice for 5 minutes. Finally, tubes were centriguated at 13000 rpm for 15 minutes, the liquid phase was harvested and mixed with 100 μl of 10% ammonium hydroxide. Absorbance was measured at 405 nm with a spectrophotometer (Varioskan Flash, Thermo Fisher Scientific).
The mineralization level was evaluated by a biochemical assay as previously described after 21 days of differentiation culture. Results are representative of 3 experiments.

[6] = tested on: alkaline phosphatase; conditions: 300 ng/ml, 1000 ng/ml; day 1 and day 21; vs CTL
Description: MC3T3-E1 cells were differentiated during 21 days as mentioned previously. […] Treated cells were compared to cells without any peptide stimulation (CTL).
We also assessed the specific alkaline phosphatase activity (μmol de para-nitrophenol/min/mg of protein). To that goal, we lysed the cells using 300 μL of a buffer containing 0.2 M Tris-Base, 1.6 mM MgCl2 pH 8.1 and 1% Triton X-100. Samples were then placed into tubes and put on ice for 30 min. During this time, we alternated periods of 30 sec vortex and 5 min on ice. Then, samples were sonicated, and centrifugated for 15 min at 13 000 g, 4° C. Supernatant was collected, and total protein concentration was evaluated using bicinchoninic acid assay.
Alkaline phosphatase activity was measured by placing the harvested supernatants in para-nitrophenyl phosphate (pNPP) solution. The alkaline phosphatase will cleave this substrate and generate para-nitrophenol (pNP).
A solution of 4 mg/mL of pNPP is prepared in buffer A (0.1 M glycine pH 10.5, 0.11% (m/v) Zinc acetate and 0.011% magnesium chloride (m/v)). […]
Absorbance is read at 410 nm on a Varioskan Flash apparatus. Alkaline phosphatase activity is calculated based on the standard curve (equation A410=a×quantity(ρNP)+b) with the following formula: activity=((A(410 nm)−b)×reaction volume)/(a×sample volume×reaction time)

[7] = PEP16 at 100 or 300 ng/mL, day 7, 14, 21, normalized with S29

DRLGKKVKRWDMKLRH (PEP16)
proteoglycans deposition in the extracellular matrix (Alcian blue, absorbance 650 nm) ([1]; 300 ng/ml, 14 days, vs control cells): significantly increase the proteoglycans deposition
glycosaminoglycans quantification (accumulation in the extracellular matrix) ([1]; PEP16 at 30, 100, 300 ng/mL, Alcian blue at day 28, blue pixels and biochemical quantification): significantly increased the accumulation of glycosaminoglycans
CamKII pathway activation (P-CamKII over total) [2]: increased the activation of the CamKII pathway
MMP13 enzymatic activity in culture supernatant [3]: capable of reducing the enzymatic activity
expression of ANKRD (YAP/TAZ target gene) ([4]; PEP16 at 300 ng/ml or cells stably overexpressing the NTN domain, D1 and D14, vs control cells): managed to do so
relative expression level of osteocalcin [4, 7]: favoured the induction of the expression
relative expression level of osterix [4, 7]: favoured the induction of the expression
mineralization quantification (mineral content in the extracellular matrix) [5]: significantly increased the accumulation of mineral content
specific alkaline phosphatase activity [6]: tended to increase the alkaline phosphatase activity
